These results are taken from patent US20180251434A1, “ANTIBACTERIAL HETEROCYCLIC DERIVATIVES” (priority 2015, published 2018).

Holding throughout (format): cell-based
The test system of one assay is P. aeruginosa ATCC27853. Description: Bacterial growth minimal inhibitory concentration (broth microdilution, CLSI M7-A7). The following applies: quinolone-sensitive strain; for MIC: Pseudomonas aeruginosa, ATCC27853, cation-adjusted Mueller Hinton Broth; for MIC for P. aeruginosa ATCC27853: cation-adjusted Mueller Hinton Broth. Here is the method: (§1) Minimal Inhibitory Concentrations (MICs; mg/L) were determined in cation-adjusted MuellerHinton Broth by a microdilution method following the description given in “Methods for Dilution Antimicrobial Susceptibility Tests for Bacteria that grow Aerobically”, Approved standard, 7th ed., Clinical and Laboratory Standards Institute (CLSI) Document M7-A7, Wayne, Pa., USA (2006).
(§2) All Example compounds were tested against several Gram-positive and Gram-negative bacteria. […] K pneumoniae A-651 is a multiply-resistant strain (in particular quinolone-resistant), while E. coli ATCC25922 and P. aeruginosa ATCC27853 are quinolone-sensitive strains.

A further assay has as its system K. Pneumoniae A-651. Described as above. The settings on record: cation-adjusted Mueller Hinton Broth, multiply-resistant (quinolone-resistant) strain; for MIC: Klebsiella pneumoniae. How it is done: as §1, §2
For a further assay, the system named is E. coli ATCC25922. The assay is described as above. The settings on record: quinolone-sensitive strain; for MIC: Escherichia coli, ATCC25922, cation-adjusted Mueller Hinton Broth; for MIC for E. coli ATCC25922: cation-adjusted Mueller Hinton Broth. How it is done:
as §1, §2

The next assay deals with wild-type E. coli A-1261. Description: MIC with or without alkaline phosphatase or esterase (prodrug activation). The settings on record: Escherichia coli. Here is the method: Minimal Inhibitory Concentrations (MICs; mg/L) were determined in cation-adjusted MuellerHinton Broth by a microdilution method following the description given in “Methods for Dilution Antimicrobial Susceptibility Tests for Bacteria that grow Aerobically”, Approved standard, 7th ed., Clinical and Laboratory Standards Institute (CLSI) Document M7-A7, Wayne, Pa., USA (2006). The compounds of Examples 5 and 12 were tested against wild-type E. coli A-1261 in the absence of alkaline phosphatase or esterase, in the presence of an alkaline phosphatase, and in the presence of an esterase. The corresponding antibacterial test results are given in Table 2 hereafter (MICs in mg/L).

Setting [1] is: alkaline phosphatase 2 i.U./mL, read-out: MIC for E. coli A-1261 In the presence of an alkaline phosphatase (2 i.U./mL).
Where [2] appears, read: esterase 10 i.U./mL, read-out: MIC for E. coli A-1261 In the presence of an esterase (10 i.U./mL).
The mark [3] stands for this setting: no alkaline phosphatase or esterase, read-out: MIC for E. coli A-1261 In the absence of alkaline phosphatase or esterase.

Structures are written as SMILES. ≈ marks a conversion by molar mass, not a printed value. Like-named read-outs stand apart in the source and are kept apart here.

Consider `COc1ccc(-c2ccc3c(c2)oc(=O)n3CCC(C)(C(=O)NO)S(C)(=O)=O)c(F)c1` (racemic) [RE1, (2RS)-4-(6-(2-fluoro-4-methoxyphenyl)-2-oxobenzo[d]oxazol-3(2H)-yl)-N-hydroxy-2-methyl-2-(methylsulfonyl)butanamide], for which the values for the MIC in the assay on P. aeruginosa ATCC27853, against K. Pneumoniae A-651 and with E. coli ATCC25922 were more than 8 µg/mL, 1 µg/mL (≈ 2.21 µM) and 2 µg/mL (≈ 4.42 µM), respectively.
As for `CC(CCn1c(=O)oc2cc(C#CC#CC3(O)COC3)ccc21)(C(=O)NO)S(C)(=O)=O` (racemic) [RE2, (2RS)—N-hydroxy-4-(6-((3-hydroxyoxetan-3-yl)buta-1,3-diyn-1-yl)-2-oxobenzo[d]oxazol-3(2H)-yl)-2-methyl-2-(methylsulfonyl)butanamide], the MIC was more than 8 µg/mL against P. aeruginosa ATCC27853, 8 µg/mL (≈ 17.8 µM) in the assay with K. Pneumoniae A-651 and 4 µg/mL (≈ 8.92 µM) against E. coli ATCC25922.
For `C[C@@](CCn1c(=O)oc2cc(C#Cc3ccc(CO)cc3)ccc21)(C(=O)NO)S(C)(=O)=O` [Example 1], the “MIC for P. aeruginosa ATCC27853” value with P. aeruginosa ATCC27853 was found to be 4 µg/mL. For the same compound, in the assay with K. Pneumoniae A-651, the “MIC for K. Pneumoniae A-651” value was 0.5 µg/mL. In addition, the “MIC for E. coli ATCC25922” value in the assay on E. coli ATCC25922 is 0.25 µg/mL.
Taken in the same sequence, the figures for `C[C@@](CCn1c(=O)oc2cc(C#CC#CC3(CO)CC3)ccc21)(C(=O)NO)S(C)(=O)=O` [Example 2, (2R)—N-hydroxy-4-(6-((1-(hydroxymethyl)cyclopropyl)buta4,3-diyn-1-yl)-2-oxobenzo[d]oxazol-3(2H)-yl)-2-methyl-2-(methylsulfonyl)butanamide] were 1 µg/mL, 1 µg/mL and 0.25 µg/mL.
For `C[C@@](CCn1c(=O)oc2cc(C#Cc3ccc(CN4CCOCC4)cc3)ccc21)(C(=O)NO)S(C)(=O)=O` [Example 3], the “MIC for P. aeruginosa ATCC27853” value in the assay with P. aeruginosa ATCC27853 is more than 8 µg/mL. Moreover, the “MIC for K. Pneumoniae A-651” value in the assay with K. Pneumoniae A-651 amounted to 2 µg/mL. The “MIC for E. coli ATCC25922” value in the assay with E. coli ATCC25922 is 2 µg/mL.
Turning to `CNC1(C#CC#Cc2ccc3c(c2)oc(=O)n3CC[C@](C)(C(=O)NO)S(C)(=O)=O)CC1` [Example 4, (2R)—N-hydroxy-2-methyl-4-(6-((1-(methylamino)cyclopropyl)buta-1,3-diyn-1-yl)-2-oxobenzo[d]oxazol-3(2H)-yl)-2-(methylsulfonyl)butanamide], the figures for the MIC against P. aeruginosa ATCC27853, against K. Pneumoniae A-651 and in the assay with E. coli ATCC25922 were 1 µg/mL (≈ 2.24 µM), 0.25 µg/mL (≈ 0.561 µM) and 0.25 µg/mL (≈ 0.561 µM), respectively.
On to `C[C@@](CCn1c(=O)oc2cc(C#CC#C[C@H]3C[C@@H]3CO)ccc21)(C(=O)NO)S(C)(=O)=O` [Example 5, (2R)—N-hydroxy-4-(6-(((1S,2S)-2-(hydroxymethyl)cyclopropyl)buta-1,3-diyn-1-yl)-2-oxobenzo[d]oxazol-3 (2H)-yl)-2-methyl-2-(methylsulfonyl)butanamide], for which the MIC in the assay on P. aeruginosa ATCC27853 amounted to 0.5 µg/mL (≈ 1.12 µM); with K. Pneumoniae A-651, 0.125 µg/mL (≈ 0.28 µM); against E. coli ATCC25922 it was 0.063 µg/mL (≈ 0.141 µM); in the assay on wild-type E. coli A-1261 (setting [1]), 0.063 µg/mL; with wild-type E. coli A-1261 (setting [2]), 0.063 µg/mL; in the assay with wild-type E. coli A-1261 (setting [3]), 0.063 µg/mL (≈ 0.141 µM).
With `C[C@@](CCn1c(=O)oc2cc(C#CC#C[C@H]3C[C@]3(F)CO)ccc21)(C(=O)NO)S(C)(=O)=O` [Example 6, (2R)-4-(6-(((1R,2R)-2-fluoro-2-(hydroxymethyl)cyclopropyl)buta-1,3-diyn-1-yl)-2-oxobenzo[d]oxazol-3(2H)-yl)-N-hydroxy-2-methyl-2-(methylsulfonyl)butanamide], the MIC was determined as 0.5 µg/mL (≈ 1.08 µM) against P. aeruginosa ATCC27853, 0.25 µg/mL (≈ 0.538 µM) in the assay with K. Pneumoniae A-651 and 0.125 µg/mL (≈ 0.269 µM) in the assay on E. coli ATCC25922.
Taken in the same sequence, the figures for `C[C@@](CCn1c(=O)oc2cc(C#CC#CCOC(=O)N3CC(O)C3)ccc21)(C(=O)NO)S(C)(=O)=O` [Example 7, (3R)-5-(3-(4-(hydroxyamino)-3-methyl-3-(methylsulfonyl)-4-oxobutyl)-2-oxo-2,3-dihydrobenzo[d]oxazol-6-yl)penta-2,4-diyn-1-yl 3-hydroxyazetidine-1-carboxylate] were 1 µg/mL (≈ 1.98 µM), 1 µg/mL (≈ 1.98 µM) and 0.5 µg/mL (≈ 0.989 µM).
Taken in the same sequence, the figures for `C[C@@](CCn1c(=O)oc2cc(C#CC#CC3(N)CC3)ccc21)(C(=O)NO)S(C)(=O)=O` [Example 8, (2R)-4-(6-((1-aminocyclopropyl)buta-1,3-diyn-1-yl)-2-oxobenzo[d]oxazol-3(2H)-yl)-N-hydroxy-2-methyl-2-(methylsulfonyl)butanamide] were 1 µg/mL (≈ 2.32 µM), 0.25 µg/mL (≈ 0.579 µM) and 0.125 µg/mL (≈ 0.29 µM).
As for `CN1CC(C#CC#Cc2ccc3c(c2)oc(=O)n3CC[C@](C)(C(=O)NO)S(C)(=O)=O)C1` [Example 9, (2R)—N-hydroxy-2-methyl-4-(6-((1-methylazetidin-3-yl)buta-1,3-diyn-1-yl)-2-oxobenzo[d]oxazol-3(2H)-yl)-2-(methylsulfonyl)butanamide], the MIC with P. aeruginosa ATCC27853 was 1 µg/mL (≈ 2.24 µM); in the assay on K. Pneumoniae A-651, 0.5 µg/mL (≈ 1.12 µM); against E. coli ATCC25922, 1 µg/mL (≈ 2.24 µM).
`CN1CC(C#CC#Cc2ccc3c(c2)sc(=O)n3CC[C@](C)(C(=O)NO)S(C)(=O)=O)C1` [Example 10, (2R)—N-hydroxy-2-methyl-4-(6-((1-methylazetidin-3-yl)buta-1,3-diyn-1-yl)-2-oxobenzo[d]thiazol-3(2H)-yl)-2-(methylsulfonyl)butanamide]: the results for the MIC against P. aeruginosa ATCC27853, against K. Pneumoniae A-651 and in the assay with E. coli ATCC25922 were 2 µg/mL (≈ 4.33 µM), 1 µg/mL (≈ 2.17 µM) and 0.5 µg/mL (≈ 1.08 µM), respectively.
In the case of `C[C@@](CCn1c(=O)sc2cc(C#CC#C[C@H]3C[C@]3(F)CO)ccc21)(C(=O)NO)S(C)(=O)=O` [Example 11, (2R)-4-(6-(((1R,2R)-2-fluoro-2-(hydroxymethyl)cyclopropyl)buta-1,3-diyn-1-yl)-2-oxobenzo[d]thiazol-3(2H)-yl)-N-hydroxy-2-methyl-2-(methylsulfonyl)butanamide], the MIC against P. aeruginosa ATCC27853 turned out to be 1 µg/mL (≈ 2.08 µM); in the assay on K. Pneumoniae A-651 it was 0.25 µg/mL (≈ 0.52 µM); in the assay on E. coli ATCC25922 it was 0.063 µg/mL (≈ 0.131 µM).
Regarding `C[C@@](CCn1c(=O)oc2cc(C#CC#C[C@H]3C[C@@H]3COP(=O)(O)O)ccc21)(C(=O)NO)S(C)(=O)=O` [Example 12, ((1S,2S)-2-((3-((3R)-4-(hydroxyamino)-3-methyl-3-(methylsulfonyl)-4-oxobutyl)-2-oxo-2,3-dihydrobenzo[d]oxazol-6-yl)buta-1,3-diyn-1-yl)cyclopropyl)methyl dihydrogen phosphate], the MIC with wild-type E. coli A-1261 (setting [1]) was 0.125 µg/mL; in the assay on wild-type E. coli A-1261 (setting [2]), more than 8 µg/mL; with wild-type E. coli A-1261 (setting [3]), more than 8 µg/mL.
In the case of `C[C@@](CCn1c(=O)sc2cc(C#Cc3ccc(CO)cc3)ccc21)(C(=O)NO)S(C)(=O)=O` [Example 13], the “MIC for P. aeruginosa ATCC27853” value against P. aeruginosa ATCC27853 was found to be 8 µg/mL. Also, the “MIC for K. Pneumoniae A-651” value in the assay on K. Pneumoniae A-651 is 0.5 µg/mL. The “MIC for E. coli ATCC25922” value against E. coli ATCC25922 is 0.125 µg/mL.
